# According to patent US12527869B2, “Stable microspheres, method off abrication and use thereof” (B. G. NEGEV TECHNOLOGIES AND APPLICATIONS LTD., AT …, priority 2018, dated 2026):
# Assays:
# [1] = cited from earlier work
# [2] = cited from earlier work; for Ostwald coefficient (×10^6): gas solubility
# [3] = In vitro cavitation measurement by passive cavitation detection (PCD); conditions: C3F8; 499 KPa; about 6×10^7 MBs or 350 μl free gas
# Method: Lyophilized microbubbles prepared as described in Example 1 herein were weighed and inserted into a headspace vial, and the vial was sealed by a screw cap with 1.3 mm silicone septum. Empty 50 ml syringe, 10 ml syringe filled with the desired gas and a 27 G needle, were connected to a 3 ways stopcock. The air inside the vail was drawn using the 50 ml syringe to form a vacuum, then the desired gas in the 10 ml syringe was injected into the vial. The MBs were dispersed with the desired volume (3 ml-7 ml) of degassed water, which was injected with an additional syringe and needle (23 G) through the septum cap, to prevent gas leakage. […]
# Acoustic absorbing material (E in FIG. 8) was located at the top of the chamber to prevent ultrasound reflection, and a receiver (hydrophone manufactured by InSightec) was placed at an angle of […] to the direction of wave propagation (F in FIG. 8). […] These variations were recorded by the same digital pico-oscilloscope, and the data was analyzed using MATLAB software. […]
# Between measurements, it was necessary to degas the water in the system to ensure that the measured cavitation was caused by the activity of microbubbles examined in the specific experiment, and not as a result of existing gas bubbles in water, or microbubbles from a previous experiment, which remained in the system. […]
# The data were analyzed using MATLAB software. […]
SMILES,water solubility [1],Ostwald coefficient (×10^6) [2],Diffusivity coefficient in water [2],"cavitation dose (CD) by inner core structure, compared with hollow single-core microbubbles [3]"
"ClCCl [DCM, dichloromethane]",20 mg/mL,–,–,–
"FC(F)(F)C(F)(F)C(F)(F)F [Synthesis C3F8, perfluoropropane]",–,520 ×10^6,7.45 m^2s^−1 (×10^10),very low
"FS(F)(F)(F)(F)F [SF6, sulfur hexafluoride]",–,5400 ×10^6,12 m^2s^−1 (×10^10),–
"FC(F)(F)C(F)(F)C(F)(F)C(F)(F)F [Synthesis C4F10, perfluorobutane]",–,202 ×10^6,6.9 m^2s^−1 (×10^10),–
CCOC(C)=O [ethyl acetate],90 mg/mL,–,–,–
